Laboratory results reported in US20230365568A1, “PLK1 POLO BOX DOMAIN INHIBITORS AND METHOD OF TREATING CANCER” (The United States of America,as represented by the …, priority 2020, published 2023).
Where two headings read alike, the source gives them in different places. Values belong to the compound of their own block, whether it stands above or below them.

Legend:
[1] = in vitro; settings: PAMPA
[2] = rat, microsomes
[3] = target: PBD of Plk1 (Homo sapiens (Human), UniProt P53350); settings: Gunasekaran et al., 2020; cited from earlier work
[4] = test system: HeLa cells; settings: cancer cells in vitro; Alverez et al., 2020; cited from earlier work
[5] = test system: CYP3A; assay: Mouse liver microsome assay with CYP-specific inhibitors; type: in vitro ADME; settings: mouse liver microsomes
Description: In Vitro MLM Assay. Incubations of the mouse liver microsome (MLM) samples were performed in duplicate. Reactions (200 μL final volume) were conducted in 50 mM potassium phosphate buffer, 3 mM MgCl2 (pH 7.4), 1 mg/mL MLM protein, and 2.5 μM test compound with or without 50 μM inhibitor. The mixture was preincubated at 37° C. for 3 min and initiated with 4 mM NADPH. At the serial time of the incubation, 20 μL of the mixture was added to ice-cold 80 μL of 90% acetonitrile including 4 μM of 4 followed by a 25 min incubation on ice and centrifugation at 14,000×g for 10 min. 40 μL of supernatant was diluted with 20 μL of water, and a 5 μL aliquot was injected into the UPLC-QTOF system.
To evaluate metabolic stability information, S-methyl 51 and 5-thio-1-methyl-4-nitroimidazolyl 73 prodrugs were administered orally in male C57BL/6 mice via gavage 50 mg/kg or 20 mg/kg, respectively. […] The AUCs of 14 were 523,200 mg-h/L and 317,600 mg-h/L in 50 mg/kg and 20 mg/kg doses, respectively. Compound 14 was further metabolized by glucuronidation. […] The presence of the 9-F group impeded the hydroxylation, compared to the PK studies in Alverez et al. (J. Med. Chem. 63, 14087-14117 (2020)).

[6] = Aqueous solubility; settings: for Solub.: aqueous solubility
[7] = Microsomal metabolic stability, rat liver microsomes (RLM); settings: rat liver microsomes
[8] = target: PBD of Plk2 (Homo sapiens (Human), UniProt Q9NYY3); assay: Fluorescence polarization (FP)-based PBD inhibition assay, Plk2; type: binding
Description: (§1) FP assays were carried out essentially as described previously (Qian, ibid). […] All experiments were performed in triplicate for each sample.
(§2) PBD Fluorescence Polarization (FP) Binding Assays for Plk1 specificity. […] All experiments were performed in triplicate for each sample.

[9] = target: PBD of Plk3 (Homo sapiens (Human), UniProt Q9H4B4); assay: Fluorescence polarization (FP)-based PBD inhibition assay, Plk3; type: binding
Description: as §1, §2

Chain of PBD of Plk2 (Q9NYY3 355-685): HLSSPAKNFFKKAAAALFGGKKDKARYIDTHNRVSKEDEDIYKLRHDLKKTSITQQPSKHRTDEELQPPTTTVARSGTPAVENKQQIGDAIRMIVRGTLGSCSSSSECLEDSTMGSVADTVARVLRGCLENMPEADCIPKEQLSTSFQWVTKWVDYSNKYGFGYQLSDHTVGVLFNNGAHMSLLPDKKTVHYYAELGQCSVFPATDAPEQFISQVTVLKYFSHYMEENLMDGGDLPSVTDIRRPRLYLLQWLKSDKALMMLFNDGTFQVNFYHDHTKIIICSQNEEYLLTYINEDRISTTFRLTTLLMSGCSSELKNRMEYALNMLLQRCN
Chain of PBD of Plk3 (Q9H4B4 335-646): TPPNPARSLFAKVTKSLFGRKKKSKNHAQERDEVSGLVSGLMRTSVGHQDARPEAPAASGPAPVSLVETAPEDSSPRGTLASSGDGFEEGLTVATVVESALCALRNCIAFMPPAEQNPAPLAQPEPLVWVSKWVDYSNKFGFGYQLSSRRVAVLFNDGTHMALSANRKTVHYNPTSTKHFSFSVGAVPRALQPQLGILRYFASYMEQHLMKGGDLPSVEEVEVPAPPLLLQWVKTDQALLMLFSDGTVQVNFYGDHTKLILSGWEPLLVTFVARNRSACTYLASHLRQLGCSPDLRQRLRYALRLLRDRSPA
Chain of PBD of Plk1 (P53350 326-603): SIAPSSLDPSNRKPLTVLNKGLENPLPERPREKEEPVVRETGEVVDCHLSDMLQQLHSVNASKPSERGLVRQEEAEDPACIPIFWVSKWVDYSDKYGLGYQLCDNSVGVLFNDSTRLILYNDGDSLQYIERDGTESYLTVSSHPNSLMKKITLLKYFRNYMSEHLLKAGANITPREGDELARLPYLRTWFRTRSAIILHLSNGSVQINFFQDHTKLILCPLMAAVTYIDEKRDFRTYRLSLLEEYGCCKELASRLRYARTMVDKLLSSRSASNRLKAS

- Papp [1]: 27.6 ×10⁻⁶ cm/s
Compound: Cc1noc(C)c1C=CC(=O)NCCCn1c(=O)c2cc(F)ccc2n2c(=S)[nH]nc12 [compound 121, 3-(3,5-dimethylisoxazol-4-yl)-N-(3-(7-fluoro-5-oxo-1-thioxo-1,2-dihydro-[1,2,4]triazolo[4,3-a]quinazolin-4(5H)-yl)propyl)propenamide]

- sensitivity of conversion to 14 to ketoconazole (CYP3A inhibitor) [5]: refractory to ketoconazole treatment
- PAMPA: 18.0 ×10⁻⁶ cm/s
- Solub. [6]: >50 µg/mL
- t1/2 (min, RLM) [7]: >30 min
Compound: CC(=O)NCCCn1c(=O)c2cc(F)ccc2n2c(=S)[nH]nc12 [compound 73]

- PAMPA: 46.0 ×10⁻⁶ cm/s
- solubility [6]: moderate to good solubility
- Solub. [6]: 16.2 µg/mL
- t1/2 (min, RLM) [7]: >30 min
Compound: O=c1c2cc(F)ccc2n2c(=S)[nH]nc2n1CC1CC1 [compound 79]
- inhibition of Plk2 PBD, FP assay [8]: failed to exhibit any detectable level of inhibition
- inhibition of Plk3 PBD, FP assay [9]: failed to exhibit any detectable level of inhibition

Continued, compound first:

Compound: 7-fluoro-4-(2-(piperidin-1-yl)ethyl)-1-thioxo-2,4-dihydro-[1,2,4]triazolo[4,3-a]quinazolin-5(1H)-one [Example 49]
- t1/2 (min, RLM) [2]: >30 min

Compound: CNc1ccc(C(=O)NCCn2cc(C=C3C(=O)NC(=O)NC3=O)c(-c3ccccc3)n2)cc1 [KBJK557]
- cross-reactivity among Plk1-3 PBDs [3]: considerable cross-reactivities among Plk1-3 PBDs

Compound: CSc1nnc2n(CCc3ccccc3)c(=O)c3ccccc3n12 [Example 6, 1-(methylthio)-4-phenethyl-[1,2,4]triazolo[4,3-a]quinazolin-5(4H)-one]
- concentration required to induce mitotic arrest and affect proliferation [4]: > 100 µM
